The values that follow come from patent US20110105397A1, “METHOD FOR TREATING HEART FAILURE WITH STRESSCOPIN-LIKE PEPTIDES” (priority 2009, published 2011).

“And” between values parts separate entries of the source, which are not always exact repeats. Equal values may be shown once. Read-outs that look alike come from different tables or passages of the source.

For one experiment, the target named is T1, human CRHR2 (Homo sapiens, UniProt Q13324).
T1 construct: expressed in transfected cells
T1 sequence (Q13324 1-411): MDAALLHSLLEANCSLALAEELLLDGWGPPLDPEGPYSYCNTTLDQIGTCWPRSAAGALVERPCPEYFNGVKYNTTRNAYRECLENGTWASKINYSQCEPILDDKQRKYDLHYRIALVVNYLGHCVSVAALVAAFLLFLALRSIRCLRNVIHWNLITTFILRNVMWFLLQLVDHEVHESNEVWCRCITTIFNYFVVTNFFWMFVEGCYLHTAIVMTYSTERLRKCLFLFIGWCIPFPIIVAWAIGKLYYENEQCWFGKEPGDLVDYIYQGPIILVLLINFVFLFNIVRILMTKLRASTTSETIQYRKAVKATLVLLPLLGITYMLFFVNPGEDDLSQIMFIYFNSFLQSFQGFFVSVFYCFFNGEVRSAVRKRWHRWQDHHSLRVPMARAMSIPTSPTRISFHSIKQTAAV
The experiment can be described thus: cAMP assay, h-CRHR2 transfected SK-N-MC cells. Format: cell-based. The note with it: for nH (Hill slope) / αmax (maximal asymptote): h-CRHR2; for αmax (maximal asymptote): in %. The essentials:
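SK-N-MC cells stably expressing human CRHR2 were treated with peptides (1 pM to 1 μM) for 60 min at 37 °C in IBMX-containing medium, with 10 μM forskolin as positive control. Cells were lysed with 0.5 M HCl and cAMP measured by [125I]-cAMP competition flash plate. A50 came from Hill-equation fits, normalised to h-SCP maximum.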
A general note: cAMP levels reflect the balance of adenylyl cyclase and phosphodiesterase activity.

A further experiment concerns the target T2, CRHR1 (Homo sapiens, UniProt P34998).
T2 sequence (P34998 24-415): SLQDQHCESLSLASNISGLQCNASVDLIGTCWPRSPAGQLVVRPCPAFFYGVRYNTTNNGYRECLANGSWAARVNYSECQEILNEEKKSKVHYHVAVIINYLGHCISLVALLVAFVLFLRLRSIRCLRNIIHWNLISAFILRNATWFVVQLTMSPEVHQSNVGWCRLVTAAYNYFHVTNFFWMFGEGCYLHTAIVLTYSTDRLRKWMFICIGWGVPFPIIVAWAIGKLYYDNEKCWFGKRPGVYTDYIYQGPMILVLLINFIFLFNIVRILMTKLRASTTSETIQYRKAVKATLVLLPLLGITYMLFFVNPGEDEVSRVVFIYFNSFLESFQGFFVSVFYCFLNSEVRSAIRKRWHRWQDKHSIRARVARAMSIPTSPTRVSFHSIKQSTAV
The experiment can be described thus: cAMP assay, h-CRHR1 transfected SK-N-MC cells. The experiment is classed as cell-based. Details: expressed in transfected cells. Conditions: Table 11; for EC50: h-CRHR1 transfected SK-N-MC cells, 1 hr at 37° Celsius, read-out: pA50 (Experimental) (converted). The method, then:
Human CRHR1 (accession number X72304) or CRHR2 (accession number U34587) were cloned into pcDNA3.1/Zeo expression vector and stably transfected into SK—N-MC cells by electroporation. Cells were maintained in MEM w/Earl's Salt with 10% FBS, 50 I.U. penicillin, 50 μg/ml streptomycin, 2 mM L-glutamine, 1 mM sodium pyruvate and 0.1 mM non-essential amino acids, 600 μg/ml G418. Cells were grown at 37° C. in 5% CO2
Cells were plated in 96-well tissue culture dishes (Biocoat from BD Biosciences) overnight at 50,000 cell/well. Cells were washed with PBS then resuspended in DMEM F-12 without phenol red, containing 10 μM isobutylmethylxanthine (IBMX). Cells were incubated with the peptides at concentrations ranging from 1 pM to 10 μM for 60 min at 37° Celsius. […] Forskolin (10 μM), a direct stimulant of adenylate cyclase, was used as positive control. The assays were stopped by the addition of 0.5 M HCl and mixing by orbital rotation for 2 h at 4° Celsius.
Transfected SK—N-MC cells were plated in 96-well Biocoat tissue culture dishes (BD Biosciences, San Jose, Calif., U.S.A) overnight at 50,000 cell/well. Cells were first washed with PBS and then suspended with DMEM/F-12 without phenol red, containing […]. Suspended cells were transferred into a 96-well flash plate coated with scintillant fluid. Cells were incubated with peptides ranging from 1 pM to 1 μM, for 60 min, at 37° Celsius. Forskolin at 10 μM was used as positive control. After ligand stimulation, cells were lysed by the addition of 0.5M HCl and mixed by orbital rotation for 2 h at 4° Celsius in order to release intracellular cAMP into the media.
Media containing released intracellular cAMP was transferred to a 96-well flash plate coated with scintillant fluid containing an anti-cAMP antibody. […] To generate a standard curve, cAMP ranging from 2.5 to 250 pmoles/ml was included in the experiment.
Individual agonist concentration-response curve data were fitted to the Hill equation, see formula below, using GraphPad Prism (Graphpad Software, La Jolla, Calif., U.S.A.), to provide estimates of agonist concentration needed to generate one-half maximal response (A50), and the maximal asymptote (α) and Hill slope (nH) parameters. In this equation, [A] is the agonist concentration and E is the measured effect:
For display purposes the mean fitted parameter estimates were used to generate a single E/[A] curve shown superimposed on the mean experimental data. Potency estimates for agonists, pA50, are expressed as the negative logarithm of the midpoint of each curve and listed with their standard error of measurement (SEM).
Human and rat peptides (see Table 10) were used on the stimulation of h-CRHR1 or h-CRHR2 transfected SK—N-MC cells in the cAMP flash plate assay. Peptides were incubated for 1 hr at 37° Celsius. Curves were calculated using non-linear regression sigmoidal concentration-response analysis calculation in GraphPad Prism.

Where [1] appears, read: Table 11, h-CRHR2 transfected SK-N-MC cells, 1 hr at 37° Celsius, read-out: pA50 (Experimental) (converted).

Consider “H-HPGSRIVLSLDVPIGLLQILLEQARARAAREQATTNARILARV-NH2 [SEQ ID NO: 117, HPGSRIVLSLDVPIGLLQILLEQARARAAREQATTNARILARV-NH2, reference compound]”, for which the “nH (Hill slope)” value at human CRHR2 (Table 11, listed as h-SRP) is 1.08 and 1.06 and 0.99; on CRHR1 (h-CRHR1, listed as h-SRP), 1.61 and 1.33 and 1.26. Further, the “αmax (maximal asymptote)” value on human CRHR2 (Table 11, listed as h-SRP) is 113.5 and 108.7 and 98.56. Besides, the EC50 on human CRHR2 (setting [1]) is 0.479 nM and 0.263 nM and 0.589 nM; at CRHR1, 457 nM and 631 nM and 525 nM.

For the compound “H-TKFTLSLDVPTNIMNLLFNIAKAKNLRAQAAANAHLMAQI-NH2 [SEQ ID NO: 1, TKFTLSLDVPTNIMNLLFNIAKAKNLRAQAAANAHLMAQI-NH2]”, at human CRHR2 (Table 11, listed as h-SCP), the “nH (Hill slope)” value is 0.99 and 1.04 and 1.39 and 1.55. The “αmax (maximal asymptote)” value on human CRHR2 (Table 11, listed as h-SCP) was 99.31 and 97.53 and 116.1 and 98.2. The EC50 at human CRHR2 (setting [1]) was 0.389 nM and 0.708 nM and 0.437 nM and 0.407 nM; at human CRHR2 (Table 13, cysteine mutation, N-ethylmaleimide capping, pegylation, read-out: pA50 (converted)) it was 0.182 to 0.339 nM; on human CRHR2 (Table 14, read-out: pA50 (converted)) it was 0.398 nM; at CRHR1 it was > 10000 nM. The values for the nH on human CRHR2 (Table 12) and at human CRHR2 (Table 14) were 1.18 and 1.26, respectively. For the same compound, the αmax at human CRHR2 (Table 12, normalized to the maximum response to h-SCP) was 98.68; on human CRHR2 (Table 14, % of the maximum response obtained to h-SCP), 100.1%.

In the case of `CC[C@H](C)[C@H](NC(=O)[C@H](CO)NC(=O)[C@H](CC(C)C)NC(=O)[C@@H]1CCCN1C(=O)[C@@H]1CCCN1C(=O)[C@H](CC(=O)O)NC(=O)[C@@H](N)CC(=O)O)C(=O)N[C@@H](CC(=O)O)C(=O)N[C@@H](CC(C)C)C(=O)N[C@H](C(=O)N[C@@H](Cc1ccccc1)C(=O)N[C@@H](Cc1c[nH]cn1)C(=O)N[C@@H](CC(C)C)C(=O)N[C@@H](CC(C)C)C(=O)N[C@@H](CCCNC(=N)N)C(=O)N[C@H](C(=O)N[C@@H](CC(C)C)C(=O)N[C@@H](CC(C)C)C(=O)N[C@@H](CCC(=O)O)C(=O)N[C@@H](CC(C)C)C(=O)N[C@@H](C)C(=O)N[C@@H](CCCNC(=N)N)C(=O)N[C@H](C(=O)N[C@@H](CCC(N)=O)C(=O)N[C@@H](CO)C(=O)N[C@@H](CCC(N)=O)C(=O)N[C@@H](CCCNC(=N)N)C(=O)N[C@@H](CCC(=O)O)C(=O)N[C@@H](CCCNC(=N)N)C(=O)N[C@@H](C)C(=O)N[C@@H](CCC(=O)O)C(=O)N[C@@H](CCC(N)=O)C(=O)N[C@@H](CC(N)=O)C(=O)N[C@@H](CCCNC(=N)N)C(=O)N[C@H](C(=O)N[C@H](C(=O)N[C@@H](Cc1ccccc1)C(=O)N[C@@H](CC(=O)O)C(=O)N[C@@H](CO)C(=O)N[C@H](C(N)=O)C(C)C)[C@@H](C)CC)[C@@H](C)CC)[C@@H](C)O)[C@@H](C)O)[C@@H](C)O` [SEQ ID NO: 114, DDPPLSIDLTFHLLRTLLELARTQSQRERAEQNRIIFDSV-NH2], on human CRHR2 (Table 11), the “nH (Hill slope)” value is recorded as 1.07 and the “αmax (maximal asymptote)” value was determined as 110.5. Besides, on human CRHR2 (setting [1]), the EC50 is 0.832 nM. For the same compound, on CRHR1 (h-CRHR1), the “nH (Hill slope)” value is listed as 1.15 and the “αmax (maximal asymptote)” value is reported as 99.61.
